Measurements as given in ChEMBL document CHEMBL1128063, “Discovery of selective dopamine D3 ligands: I. Dimeric 2-[4-(3-aminopropoxy)phenyl]benzimidazole antagonists” (Bioorg Med Chem Lett, 1995).

Experiments:
[1] = biological target: D(3) dopamine receptor (Homo sapiens, UniProt P35462); experiment: Binding affinity towards human cloned Dopamine D3 receptor in CHO cells by [3H]spiperone displacement.; assay type: cell-based
[2] = biological target: D(2) dopamine receptor (Homo sapiens, UniProt P14416); experiment: Binding affinity towards human cloned Dopamine D2 receptor in CHO cells by [3H]spiperone displacement.; assay type: cell-based
Sequence of D(2) dopamine receptor (P14416 whole entry): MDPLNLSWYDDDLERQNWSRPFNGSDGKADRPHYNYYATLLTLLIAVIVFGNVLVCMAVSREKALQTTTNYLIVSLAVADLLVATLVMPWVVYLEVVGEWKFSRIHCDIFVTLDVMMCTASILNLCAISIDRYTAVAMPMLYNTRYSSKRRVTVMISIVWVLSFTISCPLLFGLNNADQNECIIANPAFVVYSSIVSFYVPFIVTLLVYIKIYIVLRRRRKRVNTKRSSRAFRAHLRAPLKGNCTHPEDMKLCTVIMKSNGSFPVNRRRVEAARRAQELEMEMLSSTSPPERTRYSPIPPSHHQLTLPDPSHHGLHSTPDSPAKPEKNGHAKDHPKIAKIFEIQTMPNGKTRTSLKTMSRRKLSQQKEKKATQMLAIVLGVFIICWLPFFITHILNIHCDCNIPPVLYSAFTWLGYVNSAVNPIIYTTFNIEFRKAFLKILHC

[3] = tested on: Mus musculus; experiment: Compound was tested for the locomotory activity in mice after ip administration; assay type: functional
[4] = tested on: Rattus norvegicus; experiment: Compound was tested for the locomotory activity in rats after oral administration; no effect; assay type: functional

Sequence of D(3) dopamine receptor (P35462 whole entry): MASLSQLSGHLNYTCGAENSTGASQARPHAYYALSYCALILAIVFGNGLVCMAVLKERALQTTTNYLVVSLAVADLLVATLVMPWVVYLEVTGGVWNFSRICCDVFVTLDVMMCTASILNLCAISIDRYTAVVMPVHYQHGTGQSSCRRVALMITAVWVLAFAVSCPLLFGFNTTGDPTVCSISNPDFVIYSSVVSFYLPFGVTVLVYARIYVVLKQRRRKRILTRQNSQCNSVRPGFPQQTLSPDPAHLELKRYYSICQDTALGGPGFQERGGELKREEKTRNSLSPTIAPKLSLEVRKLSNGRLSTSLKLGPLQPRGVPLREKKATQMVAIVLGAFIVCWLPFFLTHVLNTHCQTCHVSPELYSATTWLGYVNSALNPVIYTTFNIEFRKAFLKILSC

Work on `CCN(CC)CCCOc1ccc(-c2nc3ccccc3n2CCCCn2c(-c3ccc(OCCCN(CC)CC)cc3)nc3ccccc32)cc1` yielded a Ki [1] of 28 nM and a Ki [2] of 1490 nM.

`CCN(CC)CCCOc1ccc(-c2nc3ccccc3n2CCCCCCn2c(-c3ccc(OCCCN(CC)CC)cc3)nc3ccccc32)cc1` gave a Ki [1] of 131 nM and a Ki [2] of 1750 nM.

`CCN(CC)CCCOc1ccc(-c2nc3ccccc3n2Cc2ccc(Cn3c(-c4ccc(OCCCN(CC)CC)cc4)nc4ccccc43)cc2)cc1` showed a Ki [1] of 184 nM and a Ki [2] of 3440 nM.

With `C(=C\Cn1c(-c2ccc(OCCCN3CCOCC3)cc2)nc2ccccc21)/Cn1c(-c2ccc(OCCCN3CCOCC3)cc2)nc2ccccc21` the Ki [1] was > 2040 nM and the Ki [2] was > 3330 nM.

For `C(=C\Cn1c(-c2ccc(OCCCN3CCCC3)cc2)nc2ccccc21)/Cn1c(-c2ccc(OCCCN3CCCC3)cc2)nc2ccccc21`, the Ki [1] was 9 nM and the Ki [2] was 56 nM.

`CCN(CC)CCCOc1ccc(-c2nc3ccccc3n2CC=CCn2c(-c3ccc(OCCCN(CC)CC)cc3)nc3ccccc32)cc1` was tested, and the Ki [1] was 87 nM and the Ki [2] was 1520 nM.

With `CCCN(CCC)CCCOc1ccc(-c2nc3ccccc3n2C/C=C/Cn2c(-c3ccc(OCCCN(CCC)CCC)cc3)nc3ccccc32)cc1` the Ki [1] was 5 nM and the Ki [2] was 343 nM.

In the case of `CCN(CC)CCCOc1ccc(-c2nc3ccccc3n2C/C=C/Cn2c(-c3ccc(OC)cc3)nc3ccccc32)cc1`, the Ki [2] is reported as 1410 nM.

`CCN(CC)CCCOc1ccc(-c2nc3ccccc3n2C/C=C/Cn2c(-c3ccc(OCCCC4CCCCC4)cc3)nc3ccccc32)cc1` was tested, and the Ki [1] was 39 nM and the Ki [2] was 1030 nM.

`CCN(CC)CCCOc1ccc(-c2nc3ccccc3n2C/C=C/Cn2c(-c3ccc(OCCCN(CC)CC)cc3)nc3ccccc32)cc1` gave a Ki [1] of 35 nM and a Ki [2] of 2350 nM.

In the case of `CCN(CC)CCCOc1ccc(-c2nc3ccccc3n2C/C=C/Cn2c(-c3ccccc3)nc3ccccc32)cc1`, the Ki [1] is reported as 133 nM and the Ki [2] is reported as 6530 nM.

For `CCN(CC)CCCOc1ccc(-c2nc3ccccc3n2C/C=C/Cn2c(C)nc3ccccc32)cc1`, the Ki [1] was 1200 nM and the Ki [2] was > 3330 nM.

`C(=C\Cn1c(-c2ccc(OCCCN3CCN(c4ccccc4)CC3)cc2)nc2ccccc21)/Cn1c(-c2ccc(OCCCN3CCN(c4ccccc4)CC3)cc2)nc2ccccc21` gave a Ki [1] of 275 nM and a Ki [2] of 3940 nM.

`C(=C\Cn1c(-c2ccc(OCCCN3CCCCC3)cc2)nc2ccccc21)/Cn1c(-c2ccc(OCCCN3CCCCC3)cc2)nc2ccccc21` was tested, and the Ki [1] was 10 nM, the Ki [2] was 517 nM and the ED50 [3] was 7.1 mg/kg. The ED50 [4] was > 30 mg/kg.

For `CCN(CC)CCCOc1ccc(-c2nc3ccccc3n2C/C=C/Cn2c(-c3ccc(OCCCN4CCN(c5ccccc5)CC4)cc3)nc3ccccc32)cc1`, the Ki [1] was 19 nM and the Ki [2] was 803 nM.

`CN(C)CCCOc1ccc(-c2nc3ccccc3n2C/C=C/Cn2c(-c3ccc(OCCCN(C)C)cc3)nc3ccccc32)cc1` showed a Ki [1] of 144 nM and a Ki [2] of 4990 nM.

With `CCCCN(CCCC)CCCOc1ccc(-c2nc3ccccc3n2C/C=C/Cn2c(-c3ccc(OCCCN(CCCC)CCCC)cc3)nc3ccccc32)cc1` the Ki [2] was 472 nM.
